Source: EP4583874B1, “MULTITARGET NUCLEAR RECEPTOR LIGANDS BASED ON 2-(4-(QUINOLIN-2-YLOXY)PHENOXY)PROPANOIC ACID AND 2-(4-(QUINOXALIN-2-YLOXY)PHENOXY)PROPANOIC ACID FOR THE TREATMENT OF METABOLIC AND LIVER DISEASES” (CHARLES UNIVERSITY, FACULTY OF PHARMACY IN HRADEC KRALOVE, priority 2022, dated 2024)
Read-outs that look alike come from different tables or passages of the source.

What was measured:
Format in all cases: cell-based
[1] = target: T1, human FXR (Homo sapiens, UniProt Q96RI1); assay: FXR responsive luciferase reporter gene assay (FXRE-luc + human FXR expression construct) in HepG2 cells; conditions: HepG2, 24 h
T1 construct: expressed in transfected cells; host or cells: HepG2
T1 sequence (Q96RI1 1-486): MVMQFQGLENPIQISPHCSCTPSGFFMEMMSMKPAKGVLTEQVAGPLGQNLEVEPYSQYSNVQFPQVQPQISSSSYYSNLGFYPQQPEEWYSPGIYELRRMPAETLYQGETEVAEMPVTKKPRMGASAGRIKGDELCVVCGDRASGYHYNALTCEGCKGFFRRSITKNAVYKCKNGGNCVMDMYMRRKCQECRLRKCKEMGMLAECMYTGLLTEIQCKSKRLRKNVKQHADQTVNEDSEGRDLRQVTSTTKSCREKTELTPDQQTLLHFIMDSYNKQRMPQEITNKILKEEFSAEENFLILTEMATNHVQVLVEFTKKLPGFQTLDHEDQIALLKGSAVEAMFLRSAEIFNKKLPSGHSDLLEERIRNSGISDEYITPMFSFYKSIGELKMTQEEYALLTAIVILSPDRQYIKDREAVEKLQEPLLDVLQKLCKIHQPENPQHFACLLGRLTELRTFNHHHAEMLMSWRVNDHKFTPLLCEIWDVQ
From the text: (§1) In HepG2 cells, luciferase gene reporter assays have been performed with the transiently transfected reporter gene luciferase construct with the UAS yeast binding site interacting with GAL4 protein (pGL5-UAS 9x, Promega). DNA constructs encoding human LBD domains of human PPARα, PPARγ, of LXRα (pGAL4-PPARα, pGAL4-PPARγ, pGAL4-LXRα) have been cotransfected with the reporter construct. For FXR, FXRE-luc construct with FXR response elements upstream of Firefly luciferase has been used together with an expression construct for human FXR for HepG2 cells transfection. HepG2 cells were then treated with compounds of the invention for 24 h.

[2] = target: T2, human PPARα (Homo sapiens, UniProt Q07869); assay: PPARα responsive luciferase reporter gene assay (pGAL4-PPARα / pGL5-UAS 9x) in HepG2 cells; conditions: relative activation to fenofibrate 10 µM (100%), HepG2, 24 h, negative value indicates inverse agonism
T2 construct: DNA constructs encoding human LBD domains of human PPARα, PPARγ, of LXRα (pGAL4-PPARα, pGAL4-PPARγ, pGAL4-LXRα); expressed in transfected cells; host or cells: HepG2
T2 sequence (Q07869 239-466 limits assumed): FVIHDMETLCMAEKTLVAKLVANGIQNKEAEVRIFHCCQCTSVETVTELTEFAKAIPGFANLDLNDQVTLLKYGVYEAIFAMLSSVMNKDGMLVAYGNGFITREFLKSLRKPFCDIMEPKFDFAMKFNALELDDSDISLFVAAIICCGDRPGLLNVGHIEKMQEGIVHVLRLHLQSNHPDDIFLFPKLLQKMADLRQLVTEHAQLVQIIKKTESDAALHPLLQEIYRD
From the text: Bezafibrate, GW7647 and WY14643 are known PPARα ligands. […] GW3965 is known high-affinity LXRα ligand. […]
as §1

[3] = target: T3, human LXRα (Homo sapiens, UniProt Q13133); assay: LXRα luciferase reporter gene assay, inhibition of activation by GW3965 (pGAL4-LXRα / pGL5-UAS 9x) in HepG2 cells
T3 construct: DNA constructs encoding human LBD domains of human PPARα, PPARγ, of LXRα (pGAL4-PPARα, pGAL4-PPARγ, pGAL4-LXRα); expressed in transfected cells; host or cells: HepG2
T3 sequence (Q13133 209-447 limits assumed): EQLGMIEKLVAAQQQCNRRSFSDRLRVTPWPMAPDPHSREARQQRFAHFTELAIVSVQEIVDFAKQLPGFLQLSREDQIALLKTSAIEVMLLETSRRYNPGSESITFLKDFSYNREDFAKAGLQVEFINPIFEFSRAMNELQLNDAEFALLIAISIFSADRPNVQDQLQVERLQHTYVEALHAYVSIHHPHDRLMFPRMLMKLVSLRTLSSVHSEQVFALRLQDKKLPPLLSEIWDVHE
Experimental: Bezafibrate, GW7647 and WY14643 are known PPARα ligands. […] GW3965 is known high-affinity LXRα ligand.
Inverse agonistic/antagonistic activities of tested compounds to LXRα receptor activated by the LXRα agonist GW3965(10 µM). […] Negative value indicates inverse agonism.
as §1

[4] = target: T4, human PPARγ (Homo sapiens, UniProt P37231); assay: PPARγ luciferase reporter gene assay (pGAL4-PPARγ / pGL5-UAS 9x) in HepG2 cells; conditions: HepG2, 24 h
T4 construct: DNA constructs encoding human LBD domains of human PPARα, PPARγ, of LXRα (pGAL4-PPARα, pGAL4-PPARγ, pGAL4-LXRα); expressed in transfected cells; host or cells: HepG2
T4 sequence (P37231 238-503 limits assumed): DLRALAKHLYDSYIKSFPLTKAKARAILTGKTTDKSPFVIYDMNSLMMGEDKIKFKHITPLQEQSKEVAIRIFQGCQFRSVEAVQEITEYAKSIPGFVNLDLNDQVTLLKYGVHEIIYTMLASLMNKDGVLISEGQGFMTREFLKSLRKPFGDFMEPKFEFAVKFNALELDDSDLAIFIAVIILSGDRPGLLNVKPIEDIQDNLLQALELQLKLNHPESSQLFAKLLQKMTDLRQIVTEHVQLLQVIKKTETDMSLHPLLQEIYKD

[5] = target: T5, TGR5 (Homo sapiens, UniProt Q8TDU6); assay: TGR5 luciferase reporter assay; conditions: relative activation to LCA 10 µM (100%), negative value indicates inverse agonism
T5 sequence (Q8TDU6 1-330): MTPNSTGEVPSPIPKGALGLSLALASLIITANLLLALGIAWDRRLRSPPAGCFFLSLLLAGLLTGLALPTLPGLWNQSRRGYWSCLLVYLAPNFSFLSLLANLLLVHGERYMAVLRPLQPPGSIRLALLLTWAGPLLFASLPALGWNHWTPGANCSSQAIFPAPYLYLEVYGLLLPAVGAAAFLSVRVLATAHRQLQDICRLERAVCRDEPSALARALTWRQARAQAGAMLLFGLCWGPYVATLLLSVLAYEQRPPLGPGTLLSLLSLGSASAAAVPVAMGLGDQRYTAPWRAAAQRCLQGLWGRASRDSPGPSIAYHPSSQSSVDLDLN

[6] = HepG2, 24 h; read-out: LXRα antagonism

Compound | Emax at 10 µM [1] [%] | Emax at 10 µM [2] [%] | inhibition at 10 µM [3, 6] [%] | Emax at 10 µM [4] [%] | Emax at 10 µM [5] [%] | inhibition at 10 µM ([3]; HepG2, 24 h, read-out: LXRα antagonism) [%]
C[C@@H](Oc1ccc(Oc2ccc3cc(Cl)ccc3n2)cc1)C(=O)O [compound 36, (R)-2-(4-((6-Chloroquinolin-2-yl)oxy)phenoxy)propanoic acid] | 19 | -5 | 36 | 23 | – | –
C[C@@H](Oc1ccc(Oc2ccc3c(Cl)cc(Cl)cc3n2)cc1)C(=O)O [compound 38, (R)-2-(4-((5,7-Dichloroquinolin-2-yl)oxy)phenoxy)propanoic acid] | 14 | 0 | 41 | 1 | 2 | –
C[C@@H](Oc1ccc(Oc2ccc3ccc(Br)cc3n2)cc1)C(=O)O [compound 39, (R)-2-(4-((7-Bromoquinolin-2-yl)oxy)phenoxy)propanoic acid] | 4 | 87 | 43 | 3 | 6 | –
C[C@@H](Oc1ccc(Oc2ccc3ccc(F)cc3n2)cc1)C(=O)O [compound 41, (R)-2-(4-((7-Fluoroquinolin-2-yl)oxy)phenoxy)propanoic acid] | 1 | 1 | – | 7 | – | –
C[C@@H](Oc1ccc(Oc2ccc3c(C(F)(F)F)cccc3n2)cc1)C(=O)O [compound 43, (R)-2-(4-((5-(Trifluoromethyl)quinolin-2-yl)oxy)phenoxy)propanoic acid] | 1 | -5 | 48 | -1 | – | –
CCc1ccc2ccc(Oc3ccc(O[C@H](C)C(=O)O)cc3)nc2c1 [compound 44, (R)-2-(4-((7-Ethylquinolin-2-yl)oxy)phenoxy)propanoic acid] | 15 | 0 | 7 | 4 | – | –
Cc1cc(C)c2ccc(Oc3ccc(O[C@H](C)C(=O)O)cc3)nc2c1 [compound 45, (R)-2-(4-((5,7-Dimethylquinolin-2-yl)oxy)phenoxy)propanoic acid] | 7 | 0 | 43 | 17 | – | –
C[C@@H](Oc1ccc(Oc2ccc3ccc([N+](=O)[O-])cc3n2)cc1)C(=O)O [compound 50, (R)-2-(4-((7-nitroquinolin-2-yl)oxy)phenoxy)propanoic acid] | 0 | 87 | – | – | – | –
CC(C)(Oc1ccc(Oc2ccc3ccc(Cl)cc3n2)cc1)C(=O)O [compound 55, 2-(4-((7-Chloroquinolin-2-yl)oxy)phenoxy)-2-methylpropanoic acid] | 0 | 1 | – | -2 | -15 | –
C[C@@H](Oc1ccc(Oc2cnc3ccccc3n2)cc1)C(=O)O [compound 62] | 7 | 0 | – | 2 | 43 | –
C[C@@H](Oc1ccc(Oc2cnc3ccc(Cl)cc3n2)cc1)C(=O)O [compound 63, (R)-2-(4-((7-Chloroquinoxalin-2-yl)oxy)phenoxy)propanoic acid] | -3 | 0 | – | 2 | 4 | –
C[C@@H](Oc1ccc(Oc2cnc3cc(Cl)ccc3n2)cc1)C(=O)O [compound 64, (R)-2-(4-((6-Chloroquinoxalin-2-yl)oxy)phenoxy)propanoic acid] | 1 | – | – | – | – | 17
C[C@@H](Oc1ccc(Oc2cnc3ccc(Br)cc3n2)cc1)C(=O)O [compound 65, (R)-2-(4-((7-Bromoquinoxalin-2-yl)oxy)phenoxy)propanoic acid] | -2 | 69 | – | 2 | -3 | –
Cc1ccc2ncc(Oc3ccc(O[C@H](C)C(=O)O)cc3)nc2c1 [compound 66, (R)-2-(4-((7-Methylquinoxalin-2-yl)oxy)phenoxy)propanoic acid] | -3 | 1 | – | 2 | – | –

Continued, in another order:

Emax at 10 µM [1] [%] | Emax at 10 µM [2] [%] | inhibition at 10 µM [3, 6] [%] | Emax at 10 µM [4] [%] | Emax at 10 µM [5] [%] | Compound | inhibition at 10 µM ([3]; HepG2, 24 h, read-out: LXRα antagonism) [%]
-3 | 49 | – | 9 | 11 | C[C@@H](Oc1ccc(Oc2cnc3ccc(I)cc3n2)cc1)C(=O)O [compound 68, (R)-2-(4-((7-Iodoquinoxalin-2-yl)oxy)phenoxy)propanoic acid] | –
3 | 46 | – | 1 | – | CC(=O)Nc1ccc2ncc(Oc3ccc(O[C@H](C)C(=O)O)cc3)nc2c1 [compound 69, (R)-2-(4-((7-Acetamidoquinoxalin-2-yl)oxy)phenoxy)propanoic acid] | –
-2 | 10 | – | 0 | – | COc1ccc2ncc(Oc3ccc(O[C@H](C)C(=O)O)cc3)nc2c1 [compound 70, (R)-2-(4-((7-Methoxyquinoxalin-2-yl)oxy)phenoxy)propanoic acid] | –
6 | 59 | – | 1 | 20 | CC(=O)Nc1ccc2ncc(Oc3ccc(OCC(=O)O)cc3)nc2c1 [compound 73, 2-(4-((7-Acetamidoquinoxalin-2-yl)oxy)phenoxy)acetic acid] | –
25 | – | 51 | – | – | CCOC(=O)[C@@H](C)Oc1ccc(Oc2ccc3c(Cl)cccc3n2)cc1 [compound 76, Ethyl (R)-2-(4-((5-chloroquinolin-2-yl)oxy)phenoxy)propanoate] | –
-1 | 0 | 66 | – | – | CC(Oc1ccc(Nc2cnc3ccc(Cl)cc3n2)cc1)C(=O)O (stereo not shown) [compound 80, 2-(4-((7-chloroquinoxalin-2-yl)amino)phenoxy)propanoic acid] | –
-2 | 0 | 5 | 1 | – | CC(Oc1ccc(NCc2ccc3c(Cl)cc(Cl)cc3n2)cc1)C(=O)O (stereo not shown) [compound 84, 2-(4-(((5,7-Dichloroquinolin-2-yl)methyl)amino)phenoxy)propanoic acid] | –
-1 | 1 | – | -6 | 30 | CCOC(=O)C(C)Oc1ccc(NCc2ccc3c(Cl)cccc3n2)cc1 (stereo not shown) [compound 85, Ethyl 2-(4-(((5-chloroquinolin-2-yl)methyl)amino)phenoxy)propanoate] | –
